Three molecules from patent publication US9840494B2, “Quinazoline derivative” (Tianjin Hemay Oncology Pharmaceutical Co., Ltd., priority 2013, dated 2017) can be followed below.

Structures are written as SMILES.

Experiment [1] relates to human non-small cell lung cancer cell line HCC827. Kind of experiment: In vitro inhibitory action on human tumor cells, HCC827 (SRB). In kind it is cell-based. Particulars: SRB assay, usually 3 days. The method, then:
Human epidermoid carcinoma cell line A431, human non-small cell lung cancer cell line HCC827, head and neck cancer cell lines Fadu and human pancreatic cancer cell line AsPC-1 were purchased from Cell Bank, Chinese Academy of Sciences.
3.2 Cell culture method: cells were cultured in the complete medium at 37° C. under 5% CO2 and saturated humidity until logarithmic growth phase, i.e., adherent cells substantially approach complete confluence, and then collected for subsequent assay. For the adherent cells, they were firstly digested with trypsin/EDTA to detach.
3.3 A certain number of cells were seeded into 96-well cell culture plates (hereinafter referred to as 96-well plates). […] Finally, total cellular protein in the wells was determined using SRB assay, or cell viability was determined with MTT assay.
3.3.1 The cell seeding concentration was determined by cell growth curve assay which completely simulates compound inhibition assay process. […]
3.4 Dilution and addition of compounds: the concentration of DMSO that can be tolerant by the cells was determined by DMSO tolerance assay, and thereby selecting the dilution and addition methods of compounds. The effects of different concentrations of DMSO on cell growth were determined by DMSO tolerance assay. […] Two methods are finally determined as follows. […]

The target in the next experiment is T1, EGFR (Homo sapiens, UniProt P00533).
T1 construct: purchased Invitrogen Company PV3872
T1 sequence (P00533 25-1210): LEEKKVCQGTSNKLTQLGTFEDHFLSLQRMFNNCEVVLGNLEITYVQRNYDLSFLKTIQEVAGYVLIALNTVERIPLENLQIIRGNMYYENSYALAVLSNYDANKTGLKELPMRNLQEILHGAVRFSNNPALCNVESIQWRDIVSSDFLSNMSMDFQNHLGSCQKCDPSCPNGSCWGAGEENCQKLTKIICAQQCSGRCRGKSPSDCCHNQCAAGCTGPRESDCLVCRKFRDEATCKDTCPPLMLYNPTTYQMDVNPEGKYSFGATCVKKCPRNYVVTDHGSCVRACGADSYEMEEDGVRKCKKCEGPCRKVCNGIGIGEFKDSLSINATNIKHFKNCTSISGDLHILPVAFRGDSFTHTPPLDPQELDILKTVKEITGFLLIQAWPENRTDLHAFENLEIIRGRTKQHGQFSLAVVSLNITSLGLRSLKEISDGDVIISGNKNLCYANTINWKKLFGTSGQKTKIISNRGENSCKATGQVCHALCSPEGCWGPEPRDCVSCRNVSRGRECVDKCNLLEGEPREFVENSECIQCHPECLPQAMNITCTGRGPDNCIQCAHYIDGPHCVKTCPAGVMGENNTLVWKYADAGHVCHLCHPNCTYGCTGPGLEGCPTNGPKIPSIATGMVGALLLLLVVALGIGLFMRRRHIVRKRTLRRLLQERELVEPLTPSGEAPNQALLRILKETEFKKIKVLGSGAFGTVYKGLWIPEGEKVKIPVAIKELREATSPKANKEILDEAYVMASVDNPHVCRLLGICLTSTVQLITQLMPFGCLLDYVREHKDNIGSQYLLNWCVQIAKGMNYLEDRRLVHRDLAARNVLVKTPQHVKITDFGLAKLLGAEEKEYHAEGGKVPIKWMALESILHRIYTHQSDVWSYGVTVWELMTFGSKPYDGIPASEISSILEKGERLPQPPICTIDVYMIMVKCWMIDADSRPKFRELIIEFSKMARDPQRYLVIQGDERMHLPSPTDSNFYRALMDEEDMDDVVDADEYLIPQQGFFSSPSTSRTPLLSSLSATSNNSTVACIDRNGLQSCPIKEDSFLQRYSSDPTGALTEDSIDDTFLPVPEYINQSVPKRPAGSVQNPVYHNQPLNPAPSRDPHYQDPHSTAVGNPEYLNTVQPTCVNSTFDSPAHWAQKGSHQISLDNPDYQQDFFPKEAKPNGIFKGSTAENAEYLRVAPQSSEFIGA
Kind of experiment: Inhibitory effect on tyrosine kinase activity of EGFR. In kind it is biochemical. Particulars: EGFR 40 ng/ml, ATP 10 μM, 30 min. The method, then: EGFR: Invitrogen Company, Catalogue No. PV3872
pGT (poly(glutamic acid-tyrosine)): Sigma-Aldrich Company, Catalogue No. P0275
The assay method is briefly described as follows.
3.1.1 At 4° C., 96-well microtiter plate was coated with 0.2 mg/mL pGT (as the substrate of enzyme) dissolved in PBS (phosphate buffer) overnight. Unbound pGT was washed away with a washing solution (0.05% Tween −20 in PBS), and the plate was dried in the air at room temperature for 2 h.
3.1.2 The enzyme reaction was performed in 50 μl reaction system containing 50 mM HEPEs (N-(2-hydroxyethyl)piperazine-N′-2-ethanesulfonic acid), pH 7.5, 0.01% BRIJ-35 (polyoxyethylene lauryl ether), 10 mM MgCl2, 1 mM EGTA (ethylene glycol bis(2-aminoethyl ether)tetraacetic acid), with certain concentrations of ATP (adenosine triphosphate) and kinase, and proceeded for 30 min at room temperature. The phosphate group at the terminal of ATP can be transferred to tyrosine residues of pGT by kinase catalysis so as to phosphorylate the tyrosine residues.
3.1.3 A final concentration of 1% SDS (sodium dodecyl sulfate) was added to terminate the reaction. The phosphorylated tyrosine residues were identified using pY-20. HRP at the end of the antibody enabled TMB to take on color. Then equal amount of 2 N H2SO4 was added to terminate the reaction. OD value, which is positively correlated with the phosphorylation degree of tyrosine residues of pGT, was measured at 450 nm
3.2 The concentrations of the kinase and substrate ATP were determined with reference to the literature “Optimization of a LanthaScreen Kinase assay for EGFR (ErbB1)”(https://tools.lifetechnologies.com/content/sfs/manuals/EGFR_LanthaScreen_actity_Europium.pdf), published by Invitrogen Corporation. The selection criteria for the final concentrations are that the concentration of kinase enabling the yield of the product within the linear range of the detection system and the concentration of ATP approching Km (Michaelis constant) value.
3.3.1 An appropriate amount of a compound was dissolved in DMSO (dimethylsulfoxide) to prepare 2 mM stock solution. Then the stock solution was diluted with DMSO to obtain a working solution with a 50-fold concentration of the highest test concentration, and subjected to a 4-fold gradient dilution to obtain seven concentrations in total.
5 μl 10-fold concentration of ATP dissolved in H2O (the concentration of ATP in EGFR assay is 100 μM, and in Her2 assay is 400 μM) was added to initiate the enzyme reaction followed by reaction at room temperature for 30 min
The mean value of inhibition rate and SD (standard deviation) were determined by duplicate wells. A curve with the concentration of the compound as abscissa and being in logarithmic distribution and the mean value of inhibition rate as ordinate was plotted and fitted using four-parameter logistic function.

On to `COCCOc1cc2ncnc(Nc3ccc(F)c(Cl)c3)c2cc1NC(=O)C=C1CCN(CCOC)CC1` [Compound 1, N-[4-(3-chloro-4-fluorophenylamino)-7-(2-methoxyethoxy)quinazolin-6-yl]-2-[1-(2-methoxyethyl)piperidin-4-ylidene]acetamide], for which the IC50 in experiment [1] (Homo sapiens, HCC827, 72 h) was 8 nM; at EGFR, 0.4 nM. Regarding `COCCOc1cc2ncnc(Nc3ccc(F)c(Cl)c3)c2cc1NC(=O)C=C1CCN(CCOC)CC1.CS(=O)(=O)O` [Compound 3, N-[4-(3-chloro-4-fluorophenylamino)-7-(2-methoxyethoxy)quinazolin-6-yl]-2-[1-(2-methoxyethyl)piperidin-4-ylidene]acetamide dimethylsulfonate], the IC50 in experiment [1] came out at 10 nM; on EGFR it was 0.4 nM. Molecule `COCCOc1cc2ncnc(Nc3ccc(F)c(Cl)c3)c2cc1NC(=O)C=C1CCN(CCOC)CC1.Cl.Cl` [Compound 2, N-[4-(3-chloro-4-fluorophenylamino)-7-(2-methoxyethoxy)quinazolin-6yl]-2-[1-(2-methoxyethyl)piperidin-4-ylidene]acetamide dihydrochloride] gave an IC50 against EGFR of 0.5 nM.
